# Test system: Plasma TC
# Assay: in vivo screen designated APCC, plasma total cholesterol in rats on high fat, high cholesterol diet
# Set-up: species or system male Sprague-Dawley rats
# Details: * dosed at 50 mg/kg; rat; high fat, high cholesterol diet with 0.5% cholic acid; read-out: % Change in Plasma TC Values (mg/dl)
# Excerpt: In one in vivo screen designated APCC, male Sprague-Dawley rats (200 to 225 g) were randomly divided into treatment groups and dosed at 4 PM with either vehicle (CMC/Tween) or suspensions of compounds in vehicle. The normal chow diet was then replaced with a high fat, high cholesterol diet with 0.5% cholic acid. The rats consumed this diet ad libitum during the night and were sacrificed at 8 AM to obtain blood samples for cholesterol analysis using standard procedures. Statistical differences between mean cholesterol values for the same vehicle were determined using analysis of variance followed by Fisher's least significant test. Compounds were dosed at 30 mg/kg unless otherwise noted.
row,SMILES,change in vivo at 50 mg/kg [%]
1,"CC(C)c1cccc(C(C)C)c1NC(=O)NS(=O)(=O)N(C(C)C)C(C)C [Example 1, N-[2,6-bis(1-methylethyl)phenyl]-N'-[[bis(1-methylethyl)amino]sulfonyl]ure]",-59
2,"CC(C)c1cccc(C(C)C)c1NC(=O)NS(=O)(=O)NC(c1ccccc1)c1ccccc1 [Example 2, N-[2,6-bis(1-methylethyl)phenyl]-N'-[[(diphenylmethyl)amino]sulfonyl]urea]",-14
3,"CCCCN(CCCC)S(=O)(=O)NC(=O)Nc1c(C(C)C)cccc1C(C)C [Example 4, N-[2,6-bis(1-methylethyl)phenyl]-N'-[(dibutylamino)sulfonyl]urea]",-66
4,"CC(C)c1cccc(C(C)C)c1NC(=O)NS(=O)(=O)Nc1c(C(C)C)cccc1C(C)C [Example 6, N-[2,6-bis(1-methylethyl)phenyl]-N'-[[[2,6-bis(1-methylethyl)phenyl]amino]sulfonyl]urea]",-54
5,"CC(C)c1cccc(C(C)C)c1NC(=O)NS(=O)(=O)NCC(c1ccccc1)c1ccccc1 [Example 7, N-[2,6-bis(1-methylethyl)phenyl]-N'-[[(2,2-diphenylethyl)amino]sulfonyl]urea]",-20
6,"CC(C)c1cccc(C(C)C)c1NC(=O)NS(=O)(=O)N(Cc1ccccc1)Cc1ccccc1 [Example 9, N-[2,6-bis(1-methylethyl)phenyl]-N'-[(bis(phenylmethyl)amino)sulfonyl]urea]",-59
7,"CC(C)c1cccc(C(C)C)c1NC(=O)NS(=O)(=O)NC1c2ccccc2-c2ccccc21 [Example 10, N-[2,6-bis(1-methylethyl)phenyl]-N'-[(9H-fluoren-9-ylamino)sulfonyl]urea]",-4
8,"CC(C)c1cccc(C(C)C)c1NC(=O)NS(=O)(=O)N(Cc1ccccc1)C(C)C [Example 11, N-[2,6-bis(1-methylethyl)phenyl]-N'-[[(1-methylethyl)(phenylmethyl)amino]sulfonyl]urea]",-60
9,"CCCCCCCCN(CCCCCCCC)S(=O)(=O)NC(=O)Nc1c(C(C)C)cccc1C(C)C [Example 12, N-[2,6-bis(1-methylethyl)phenyl]-N'-[(dioctylamino)sulfonyl]urea]",-41

# Same assay, conditions: dosed at 30 mg/kg; rat; high fat, high cholesterol diet with 0.5% cholic acid; read-out: % Change in Plasma TC Values (mg/dl)
row,SMILES,change in vivo at 30 mg/kg [%]
1,CC(C)c1cccc(C(C)C)c1NC(=O)NS(=O)(=O)N(c1ccccc1)c1ccccc1 [Example 3],-37
2,"CC(C)c1cccc(C(C)C)c1NC(=O)NS(=O)(=O)N1CCC(c2ccccc2)CC1 [Example 13, N-[2,6-bis(1-methylethyl)phenyl]-N'-[(4-phenyl-1-piperidinyl)sulfonyl]urea]",-67
3,CCCCCCN(CCCCCC)S(=O)(=O)NC(=O)Nc1c(C(C)C)cccc1C(C)C [Example 14],-77
4,"CC(C)c1cccc(C(C)C)c1NC(=O)NS(=O)(=O)N(CCCN(C)C)CCCN(C)C [Example 15, N-[[bis[3-(dimethylamino)propyl]amino]sulfonyl]-N'-[2,6-bis(1-methylethyl)phenyl]urea]",-30
5,"CCCCCCNS(=O)(=O)NC(=O)Nc1c(C(C)C)cccc1C(C)C [Example 16, N-[2,6-bis(1-methylethyl)phenyl]-N'-[(hexylamino)sulfonyl]urea]",-19
6,"CC(C)c1cccc(C(C)C)c1NC(=O)NS(=O)(=O)N(CC1CCCO1)CC1CCCO1 (stereo not shown) [Example 17, N-[2,6-bis(1-methylethyl)phenyl]-N'-[[bis[(tetrahydro-2-furanyl)methyl]amino]sulfonyl]urea]",-53
7,"CCN(CC)S(=O)(=O)NC(=O)Nc1c(C(C)C)cccc1C(C)C [Example 18, N-[2,6-bis(1-methylethyl)phenyl]-N'-[(diethylamino)sulfonyl]urea]",-19
8,"CCCCCCCCN(C)S(=O)(=O)NC(=O)Nc1c(C(C)C)cccc1C(C)C [Example 19, N-[2,6-bis(1-methylethyl)phenyl]-N'-[(methyloctylamino)sulfonyl]urea]",-59
9,"CC(C)c1cccc(C(C)C)c1NC(=O)NS(=O)(=O)N(C)CCc1ccccc1 [Example 20, N-[2,6-bis(1-methylethyl)phenyl]-N'-[[methyl(2-phenylethyl)amino]sulfonyl]urea]",-71
10,"CC(C)c1cccc(C(C)C)c1NC(=O)NS(=O)(=O)N(C(C)C)C1CCCCC1 [Example 21, N-[2,6-bis(1-methylethyl)phenyl]-N'[[cyclohexyl(1-methylethyl)amino]sulfonyl]urea]",-68
11,"CCCCCN(CCCCC)S(=O)(=O)NC(=O)Nc1c(C(C)C)cccc1C(C)C [Example 22, N-[2,6-bis(1-methylethyl)phenyl]-N'-[(dipentylamino)sulfonyl]urea]",-76
12,"CC(C)CN(CC(C)C)S(=O)(=O)NC(=O)Nc1c(C(C)C)cccc1C(C)C [Example 23, N-[2,6-bis(1-methylethyl)phenyl]-N'-[[bis(2-methylpropyl)amino]sulfonyl]urea]",-75
13,"C=CCN(CC)S(=O)(=O)NC(=O)Nc1c(C(C)C)cccc1C(C)C [Example 24, N-[2,6-bis(1-methylethyl)phenyl]-N'-[[ethyl(2-propenyl)amino]sulfonyl]urea]",-48
14,"CC(C)CCN(CCC(C)C)S(=O)(=O)NC(=O)Nc1c(C(C)C)cccc1C(C)C [Example 25, N-[[bis(3-methylbutyl)amino]sulfonyl]-N'-[2,6-bis(1-methylethyl)phenyl] urea]",-60
15,"CCCCCCCCCCN(CCCCCCCCCC)S(=O)(=O)NC(=O)Nc1c(C(C)C)cccc1C(C)C [Example 26, N-[2,6-bis(1-methylethyl)phenyl]-N'-[(didecylamino)sulfonyl]urea]",-57
16,CCCCCCCCCCCCN(CCCCCCCCCCCC)S(=O)(=O)NC(=O)Nc1c(C(C)C)cccc1C(C)C [Example 27],5
17,"CC(C)c1cccc(C(C)C)c1NC(=O)NS(=O)(=O)N(C1CCCCC1)C1CCCCC1 [Example 29, N-[2,6-bis(1-methylethyl)phenyl]-N'-[(dicyclohexylamino)sulfonyl]urea]",-64
18,"CCCCN(C)S(=O)(=O)NC(=O)Nc1c(C(C)C)cccc1C(C)C [Example 30, N-[2,6-bis(1-methylethyl)phenyl]-N'-[(butylmethylamino)sulfonyl]urea]",-56
19,"CCCCCCCCCCCCCCCCCCN(C)S(=O)(=O)NC(=O)Nc1c(C(C)C)cccc1C(C)C [Example 31, N-[2,6-bis(1-methylethyl)phenyl]-N'-[(methyloctadecylamino)sulfonyl]urea]",-60
20,"CC(C)NS(=O)(=O)NC(=O)Nc1c(C(C)C)cccc1C(C)C [Example 32, N-[2,6-bis(1-methylethyl)phenyl]-N'-[[(1-methylethyl)amino]sulfonyl]urea]",-17
21,"C=CCN(CC=C)S(=O)(=O)NC(=O)Nc1c(C(C)C)cccc1C(C)C [Example 33, N-[2,6-bis(1-methylethyl)phenyl]-N'-[(di-2-propenylamino)sulfonyl]urea]",-67
22,"CCCCN(CC)S(=O)(=O)NC(=O)Nc1c(C(C)C)cccc1C(C)C [Example 34, N-[2,6-bis(1-methylethyl)phenyl]-N'-[(butylethylamino)sulfonyl]urea]",-70
